Data on 6 compounds can be found in patent US20230302073A1, “BOTANICAL EXTRACTION” (Performance Labs Pte. Ltd., priority 2022, published 2023).

Data set [1] in a line: DPPH radical scavenging (antioxidant) assay. It counts as biochemical. As to conditions: for IC50: DPPH, reference standards and yerba mate extracts by solvent (Table 10). In general terms: DPPH is a stable violet radical that fades when it is reduced.
Protocol: The free radical scavenging activity of all the extracts was evaluated by 1,1-diphenyl-2-picryl-hydrazyl (DPPH) according to a previously reported method (Shen et al., 2010).
Thirty mg of dried extract of each sample was diluted in 10 ml of methanol, obtaining a concentration of 3 mg/mL as stock solution. From this stock solution were obtained the concentrations of 1.5, 0.75; 0.375; 0.1875; 0.09375; 0.046875; 0.0234275; and 0.01171825 mg/mL. Ascorbic acid, rutin, chlorogenic acid as pure reference standards were used as a positive control and dissolved in methanol to make the stock solution with the same concentration of extract solution.
DPPH (7.89 mg) was weighed on a chemical balance with a minimum weighing limit of 10 μg or smaller. Thereafter, it was dissolved in HPLC grade methanol to obtain a constant volume by filling 100 ml of a measuring flask (0.2 mM DPPH). Then further dilute this solution to 0.1 mM. The absorbance of a DPPH solution is empirically known to decrease with time until approximately 1 hr after preparation. Therefore, it was kept in dark for 2 hr until the absorbance stabilized.
The DPPH solution was stored in the dark at room temperature during the assay, and used up on the day of the preparation. 0.3 mL of each sample concentration and positive control was added to 2.7 mL of 0.1 mM DPPH solution. Reaction occurred inside tubes covered with aluminum paper, in a dark environment at 25° C. The mixtures were shaken vigorously and allowed to stand at room temperature for 30 minutes. Then the absorbance was measured at 517 nm using a microplate reader (Varioskan LUX, ThermoFisher). Control sample was prepared containing the same volume without any extract and reference ascorbic acid; methanol was used as blank and % scavenging of the DPPH free radical was measured using the following equation:
DPPH scavenging effect (% inhibition)={(Ac−As)/Ac)*100}
Where, Ac=absorbance of DPPH alone, As=absorbance of DPPH along with different concentrations of extracts.
The measurements were done at eight points of concentration. The measurement for and analytical sample solution at each concentration was repeated three times.
The IC50 of each analytical sample was calculated according to the following procedure: Inhibition ratio were plotted against the sample concentrations at all six points and the respective regression line (y=ax+b) was drawn. The regression line was not required to pass through the origin. In this step, we verified that all of the measurement points were on the regression line. […] When Y in the regression equation was substituted with 50, X (sample concentration) was calculated.
This value was obtained from the results of calculations using linear regression analysis. […]
The conditions of data set [2]: adults; cited from earlier work.
For data set [3] the following is noted: in choline chloride and glycerol; cited from earlier work.

Molecules are shown by their SMILES. In brackets after ≈: the same amount, converted by molar mass.

In the case of `O=C(/C=C/c1ccc(O)c(O)c1)O[C@H]1[C@H](O)C[C@](O)(C(=O)O)C[C@H]1OC(=O)/C=C/c1ccc(O)c(O)c1` [4,5-diCQA, 4,5-dicaffeoylquinic acid], the IC50 (as a rule, the concentration that inhibits the measured activity by half) in data set [1] is 199.68 µg/mL (≈ 387 µM).
As to `O=C(/C=C/c1ccc(O)c(O)c1)O[C@@H]1CC(O)(C(=O)O)C[C@@H](OC(=O)/C=C/c2ccc(O)c(O)c2)C1O` (stereo partly drawn) [3,5-diCQA, 3,5-dicaffeoylquinic acid], the concentration for half-maximal inhibition (IC50) in data set [1] was found to be 185.68 µg/mL (≈ 360 µM).
Regarding `Cn1c(=O)c2c(ncn2C)n(C)c1=O` [caffeine, 1,3,7-trimethylxanthine], the “contribution to the extract's antioxidant property” value in data set [1] (correlation of DPPH IC50 with total CQAs, with or without caffeine) is “no contribution”.
For the compound `C[N+](C)(C)CCO` [choline], the “daily upper limit, highest level of intake unlikely to cause harm” value in data set [2] is 3,500 mg/day.
Take `Cn1cnc2c1c(=O)[nH]c(=O)n2C` [theobromine, 3,7-dimethylxanthine]: the “solubility relative to water” value in data set [3] is about 32 times.
In data set [1], `O=C1O[C@H]([C@@H](O)CO)C(O)=C1O` [ascorbic acid] registered an IC50 of 446.70 µg/mL (≈ 2540 µM).
